This is an account of results in PubChem BioAssay (NCI).

Structures are written as SMILES.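 Compound exposure: 48 hours, 5 concentrations, 96-well plates. GI50 = concentration required for 50% inhibition of growth. TGI: total growth inhibition.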

Test systems include MDA-MB-435; HOP-62 NSCLC; IGROV1 ovarian; SK-MEL-2 melanoma; MDA-MB-231 breast; DU-145 prostate; NCI-H226 lung; SK-OV-3 ovarian; K-562 leukemia; SR leukemia.
What all share (assay): growth of human tumour cells (NCI), 48 h

On to `COc1cc(/C=C/C(=O)c2cccc(-n3cc(-c4ccccc4)[nH]c3=O)c2)cc(OC)c1OC`, for which the GI50 in the assay on MDA-MB-435 was 1200 nM; with HOP-62 NSCLC, 4120 nM; in the assay with IGROV1 ovarian it was 2000 nM; in the assay on SK-MEL-2 melanoma, 2060 nM; in the assay on MDA-MB-231 breast, 2170 nM; in the assay on DU-145 prostate, 2160 nM. The GI50 in the assay with NCI-H226 lung was 14600 nM; in the assay on SK-OV-3 ovarian, 3270 nM; in the assay on K-562 leukemia it was 502 nM; in the assay with SR leukemia it was 565 nM. The TGI stood at 5.35 µM with MDA-MB-435; 13.6 µM in the assay on HOP-62 NSCLC; 4.7 µM with IGROV1 ovarian; 4.98 µM in the assay on SK-MEL-2 melanoma; 6.18 µM in the assay on MDA-MB-231 breast; 7.85 µM in the assay with DU-145 prostate. In addition, the TGI in the assay with NCI-H226 lung is 97.4 µM; with SK-OV-3 ovarian it was 11.3 µM; in the assay with K-562 leukemia it was > 100 µM; with SR leukemia, > 100 µM.

As to `C=CCc1cccc(C=O)c1O`, the GI50 in the assay with MDA-MB-435 is > 100000 nM; in the assay with HOP-62 NSCLC, > 100000 nM; with IGROV1 ovarian it was > 100000 nM; with SK-MEL-2 melanoma it was > 100000 nM; in the assay with MDA-MB-231 breast it was 19100 nM; with DU-145 prostate it was > 100000 nM. Besides, the GI50 with NCI-H226 lung was > 100000 nM; in the assay on SK-OV-3 ovarian, > 100000 nM; in the assay with K-562 leukemia, 32000 nM; in the assay on SR leukemia it was 22000 nM. In addition, the TGI in the assay on MDA-MB-435, in the assay on HOP-62 NSCLC, with IGROV1 ovarian, in the assay with SK-MEL-2 melanoma, with MDA-MB-231 breast and with DU-145 prostate was > 100 µM in each case. Besides, the TGI with NCI-H226 lung, with SK-OV-3 ovarian, in the assay on K-562 leukemia and with SR leukemia was > 100 µM each time.

As to `COC(=O)c1c2c(c(C)[n+]([O-])c1C)C(=O)C(NCc1ccc(OC)cc1)=CC2=O`, the GI50 was 1730 nM in the assay on MDA-MB-435; 3640 nM in the assay with HOP-62 NSCLC; 1500 nM in the assay with IGROV1 ovarian; 2230 nM in the assay on SK-MEL-2 melanoma; 2200 nM in the assay on MDA-MB-231 breast; 3020 nM in the assay on DU-145 prostate. In addition, the GI50 in the assay with NCI-H226 lung is 3450 nM; in the assay on SK-OV-3 ovarian it was 4110 nM; in the assay with K-562 leukemia, 2670 nM; with SR leukemia it was 2470 nM. Moreover, the TGI came to 3.15 µM in the assay on MDA-MB-435; 97.2 µM in the assay on HOP-62 NSCLC; 3.45 µM with IGROV1 ovarian; 5.88 µM in the assay on SK-MEL-2 melanoma; 6.14 µM in the assay with MDA-MB-231 breast; 10.2 µM in the assay on DU-145 prostate. Further, the TGI is 13.5 µM in the assay with NCI-H226 lung, 15.8 µM in the assay on SK-OV-3 ovarian, > 100 µM in the assay on K-562 leukemia and > 100 µM in the assay on SR leukemia.

As for `COc1cc2c(c3oc(-c4ccc(O)cc4)c(O)c(=O)c13)CCC(C)(C)O2`, the GI50 with MDA-MB-435 was 42.7 nM; in the assay on HOP-62 NSCLC it was 71.2 nM; with IGROV1 ovarian, 158 nM; in the assay on SK-MEL-2 melanoma, 326 nM; with MDA-MB-231 breast it was 101 nM; with DU-145 prostate, 295 nM. Also, the GI50 in the assay with NCI-H226 lung is 536 nM; in the assay with SK-OV-3 ovarian it was 401 nM; in the assay on K-562 leukemia, 112 nM; in the assay on SR leukemia, 77.3 nM. Further, the TGI was 0.204 µM with MDA-MB-435; 0.165 µM in the assay on HOP-62 NSCLC; 0.526 µM with IGROV1 ovarian; 0.312 µM with MDA-MB-231 breast; > 44.9 µM in the assay on DU-145 prostate; 2.55 µM in the assay on NCI-H226 lung. Further, the TGI in the assay with SK-OV-3 ovarian came out at 5.4 µM.

As to `CN(C)CCNC(=O)c1cc2c3cc(Cl)ccc3[nH]c2c2ncccc12`, the GI50 was 1950 nM with MDA-MB-435; 5850 nM with HOP-62 NSCLC; 1520 nM with IGROV1 ovarian; 4200 nM in the assay with SK-MEL-2 melanoma; 1980 nM in the assay with MDA-MB-231 breast; 3400 nM in the assay on DU-145 prostate. The GI50 was 4040 nM in the assay on NCI-H226 lung, 6890 nM with SK-OV-3 ovarian, 1680 nM with K-562 leukemia and 1680 nM in the assay on SR leukemia. Moreover, the TGI is 4.22 µM in the assay on MDA-MB-435; 19.1 µM with HOP-62 NSCLC; 4.34 µM in the assay on IGROV1 ovarian; 20.1 µM in the assay with SK-MEL-2 melanoma; 9.77 µM with MDA-MB-231 breast; 12.7 µM in the assay with DU-145 prostate. Besides, the TGI amounted to 16.7 µM in the assay on NCI-H226 lung, 24.4 µM in the assay on SK-OV-3 ovarian, 3.98 µM in the assay on K-562 leukemia and 4.1 µM with SR leukemia.

For `Cn1ncnc1[C@@H]1c2n[nH]c(=O)c3cc(F)cc(c23)N[C@H]1c1ccc(F)cc1`, the GI50 in the assay on MDA-MB-435, in the assay with HOP-62 NSCLC, in the assay on IGROV1 ovarian, in the assay with SK-MEL-2 melanoma, in the assay on MDA-MB-231 breast and in the assay with DU-145 prostate was > 100000 nM throughout. For the same compound, the GI50 in the assay with NCI-H226 lung was > 100000 nM; in the assay on SK-OV-3 ovarian it was > 100000 nM; in the assay with K-562 leukemia, > 100000 nM; in the assay with SR leukemia, 33200 nM. Moreover, the TGI in the assay on MDA-MB-435, in the assay on HOP-62 NSCLC, in the assay on IGROV1 ovarian, in the assay on SK-MEL-2 melanoma, in the assay with MDA-MB-231 breast and with DU-145 prostate was > 100 µM in each case. Moreover, the TGI in the assay on NCI-H226 lung, with SK-OV-3 ovarian, in the assay on K-562 leukemia and in the assay with SR leukemia was > 100 µM each time.

Take `COC(=O)[C@@H](C)C[C@H](Cc1ccccc1)NC(=O)c1nc([C@@H](C[C@H](C(C)C)N(C)C(=O)[C@@H](NC(=O)[C@H]2C[C@H](O)CCN2C)C(C)C)OC(C)=O)sc1C(C)C`: the GI50 in the assay on MDA-MB-435 was < 1.11 nM; in the assay with HOP-62 NSCLC it was 31.5 nM; with IGROV1 ovarian, 3.24 nM; in the assay with SK-MEL-2 melanoma it was 3.18 nM; with MDA-MB-231 breast, 6.7 nM; in the assay on DU-145 prostate, 3.95 nM. Besides, the GI50 is 25.7 nM with NCI-H226 lung, 6.46 nM in the assay with SK-OV-3 ovarian, 2.67 nM with K-562 leukemia and 1.26 nM in the assay on SR leukemia. Also, the TGI in the assay on MDA-MB-435 was 0.00288 µM; with HOP-62 NSCLC, > 11.1 µM; in the assay on IGROV1 ovarian it was > 11.1 µM; in the assay with SK-MEL-2 melanoma, > 11.1 µM; in the assay with MDA-MB-231 breast, 0.458 µM; in the assay on SK-OV-3 ovarian, > 11.1 µM. Besides, the TGI in the assay with K-562 leukemia and in the assay with SR leukemia was > 11.1 µM throughout.

Turning to `CS(=O)(=O)OCCN(CCOS(C)(=O)=O)c1ccc(C=Nc2ccc(-c3csc(COc4ccccc4)n3)cc2)cc1`, the TGI in the assay on MDA-MB-435 worked out at 31.6 µM; in the assay on HOP-62 NSCLC, 10.1 µM; in the assay on IGROV1 ovarian, 32.8 µM; in the assay with SK-MEL-2 melanoma it was 37.3 µM; in the assay on MDA-MB-231 breast, 42.7 µM; in the assay on DU-145 prostate, 14.2 µM. Moreover, the TGI was 18.2 µM in the assay on NCI-H226 lung, 12.2 µM in the assay on SK-OV-3 ovarian, > 76 µM in the assay with K-562 leukemia and 15.5 µM in the assay with SR leukemia.

In the case of `CCOc1ccc(N(C)c2ccc(/C=C/C3=[N+](C)c4ccccc4C3(C)C)cc2)cc1`, the GI50 in the assay with MDA-MB-435 is 231 nM; in the assay on HOP-62 NSCLC it was 482 nM; with IGROV1 ovarian, 257 nM; with SK-MEL-2 melanoma, 361 nM; with MDA-MB-231 breast it was 485 nM; in the assay with DU-145 prostate, 421 nM. Further, the GI50 was 369 nM in the assay on NCI-H226 lung, 354 nM in the assay on SK-OV-3 ovarian, 359 nM in the assay with K-562 leukemia and 49.9 nM with SR leukemia. Besides, the TGI in the assay on MDA-MB-435 came to 1.32 µM; in the assay with HOP-62 NSCLC it was 1.91 µM; in the assay with IGROV1 ovarian it was 0.982 µM; in the assay with SK-MEL-2 melanoma it was 1.25 µM; with MDA-MB-231 breast, 2.22 µM; in the assay on DU-145 prostate it was 1.86 µM. For the same compound, the TGI with NCI-H226 lung turned out to be 2.18 µM; in the assay with SK-OV-3 ovarian, 1.44 µM; with K-562 leukemia it was 10.3 µM; in the assay with SR leukemia, 0.633 µM.

In the case of `CC(C)=CC[C@@H]1CC2(CC=C(C)C)C(=O)C(OC3(C(=O)c4ccccc4)C(=O)C4(CC=C(C)C)C[C@@H](CC=C(C)C)C(C)(C)C(CC=C(C)C)(C4=O)C3=O)(C(=O)c3ccccc3)C(=O)C(CC=C(C)C)(C2=O)C1(C)C` (stereo partly drawn), the GI50 in the assay on MDA-MB-435 was 1410 nM; in the assay with HOP-62 NSCLC it was 1360 nM; with IGROV1 ovarian, 1630 nM; with SK-MEL-2 melanoma it was 1010 nM; in the assay on MDA-MB-231 breast, 1490 nM; with DU-145 prostate it was 1350 nM. Moreover, the GI50 was 1340 nM with NCI-H226 lung, 1410 nM in the assay with SK-OV-3 ovarian, 1720 nM in the assay with K-562 leukemia and 1670 nM in the assay on SR leukemia. The TGI in the assay with MDA-MB-435 was 4.46 µM; in the assay on HOP-62 NSCLC, 4 µM; in the assay with IGROV1 ovarian it was 7 µM; in the assay on SK-MEL-2 melanoma it was 3.04 µM; in the assay with MDA-MB-231 breast, 4.12 µM; in the assay on DU-145 prostate, 3.88 µM. The TGI in the assay with NCI-H226 lung came out at 3.9 µM; in the assay on SK-OV-3 ovarian it was 4 µM; in the assay with K-562 leukemia it was 50 µM; in the assay on SR leukemia it was 50 µM.

For the compound `CC(C)(C)CC(C)(C)c1ccc(OCCO)cc1`, the GI50 in the assay with MDA-MB-435 is 6.26 µg/mL; with HOP-62 NSCLC, 3.75 µg/mL; in the assay with SK-MEL-2 melanoma it was 8.07 µg/mL; in the assay on MDA-MB-231 breast it was 4.43 µg/mL; with DU-145 prostate, 9.51 µg/mL; in the assay with NCI-H226 lung it was 2.44 µg/mL. Also, the GI50 is 11.2 µg/mL in the assay on SK-OV-3 ovarian, 0.887 µg/mL with K-562 leukemia and 1.43 µg/mL in the assay with SR leukemia. For the same compound, the TGI with MDA-MB-435 turned out to be 18.6 µg/mL; in the assay with HOP-62 NSCLC, 16.3 µg/mL; in the assay on SK-MEL-2 melanoma, 18.7 µg/mL; in the assay with MDA-MB-231 breast, 15.7 µg/mL; in the assay on DU-145 prostate, 20.6 µg/mL; with NCI-H226 lung it was 15.8 µg/mL. Besides, the results for the TGI with SK-OV-3 ovarian, with K-562 leukemia and in the assay on SR leukemia were 28.6 µg/mL, > 75 µg/mL and > 75 µg/mL, respectively.
